In US7262199B2, “Tyrosine kinase inhibitors” (Merck & Co., Inc., priority 2002, dated 2007):

## c1ccc(-c2cnn3cc(-c4ccc(CCCN5CCOCC5)cc4)cnc23)cc1 [Compound 2-6, 6-[4-(3-morpholin-4-ylpropyl)phenyl]-3-phenylpyrazolo[1,5-a]pyrimidine]
  melting point: 147 to 149 °C
